Results published in US5348969A, “Diphenyloxazolyl-oxazoles as platelet aggregation inhibitors” (Bristol-Myers Squibb Company, priority 1992, dated 1994).
≈ marks a conversion by molar mass, not a printed value.

Assays:
[1] = test system: ADP-induced aggregation of human blood platelets in platelet-rich-plasma; assay: In vitro inhibition of ADP-induced human platelet aggregation (aggregometer method, PRP); format: cell-based; conditions: for IC50 (human PRP vs ADP): incubated at about 37° C. for about 3 minutes prior to ADP; for IC50 / inhibition at 32 µg/mL: Homo sapiens, Platelet; for IC50: read-out: IC50 (human PRP vs ADP), human PRP, incubated at about 37° C. for about 3 minutes prior to ADP; for inhibition at 32 µg/mL: read-out: percentage in brackets beside the IC50 entry 32 (inhibition of ADP-induced aggregation)
Method: The aggregometer method of Born, G. V. R., J. Physiol., (London), 162, 67-68, (1962) as modified by Mustard, J. F., et al., J. Lab. Clin. Med., 64, 548-599, (1964) was used to assess the in vitro activity of the various compounds as to the inhibition of adenosine diphosphate (ADP) and collagen-induced platelet aggregation. The human volunteer donor's arm is cleansed with 70% ethyl alcohol. A sterile 20 ml syringe and needle are used to withdraw 20 ml of blood. The blood is immediately added to a test tube containing 3.8% sodium citrate to prevent clotting (1 part citrate to 9 parts blood).
Platelet rich plasma (PRP) was separated by centrifugation for 10 minutes at 1000 rpm (140×g) from citrated (3.8%) human blood. All glassware used for preparation of PRP is silicon treated. ADP in final concentration of 0.5 mcg/mL or 0.05 mL of a collagen suspension prepared according to the method described by Evans, G., et al., J. Exp. Med., 128, 877-894, (1968) was used to induce aggregation. The various compounds tested were dissolved in dimethylsulfoxide (DMSO) so that 5 mcl added to the platelet rich plasma would yield the desired test concentration. Vehicle control trials were done and compared with aggregation induced in platelet rich plasma containing various concentrations of the test compounds. Dose response curves were obtained and Inhibitor Concentration (IC50) values calculated.
The target compounds were evaluated as inhibitors of ADP-induced aggregation of human blood platelet in platelet-rich-plasma (PRP) in vitro. The test compounds were incubated at about 37° C. in PRP for about 3 minutes prior to the addition of sufficient ADP to provide final ADP concentration of […].

[2] = test system: platelet aggregation (human PRP vs ADP); conditions: U.S. Pat. No. 4,460,598 / Drugs of the Future 11, 26 (1986), cited from earlier work

SMILES	IC50 [1] [µg/mL]	further results
NC(c1nc(-c2ccccc2)c(-c2ccccc2)o1)C(O)c1cccc(OCC(=O)O)c1 (centres unmarked) [Compound 37]	–	IC50 (human PRP vs ADP) [1]: 0.9 µg/mL (≈ 2.09 µM)
COC(=O)COc1cccc(C2OC(=O)NC2c2nc(-c3ccccc3)c(-c3ccccc3)o2)c1 (centres unmarked) [Compound 43, Methyl[3-[4-(4,5-diphenyl-2-oxazolyl)-2-oxo-5-oxazolidinyl]phenoxy]acetate]	5 (≈ 10.6 µM)	–
O=CNC(c1nc(-c2ccccc2)c(-c2ccccc2)o1)C(O)c1cccc(OCC(=O)O)c1 (centres unmarked) [Compound 36]	6.5 (≈ 14.2 µM)	–
O=C(O)COc1cccc(-c2ncoc2-c2nc(-c3ccccc3)c(-c3ccccc3)o2)c1 [Compound 5]	0.07 (≈ 0.16 µM)	–
COC(=O)COc1cccc([C@@H]2OC(C)=N[C@H]2c2nc(-c3ccccc3)c(-c3ccccc3)o2)c1 (relative stereo) [Compound 39, Methyl[3-[4-(4,5-diphenyl-2-oxazolyl)-4,5-dihydro-2-methyl-5-oxazolyl]phenoxy]acetate]	0.65 (≈ 1.39 µM)	–
O=C(O)COc1cccc(C2OC(=O)NC2c2nc(-c3ccccc3)c(-c3ccccc3)o2)c1 (centres unmarked) [Compound 45, [3-[4-(4,5-Diphenyl-2-oxazolyl)-2-oxo-5-oxazolidinyl]phenoxy]acetic acid]	–	inhibition at 32 µg/mL [1]: 8%; IC50 (human PRP vs ADP) [1]: 32 µg/mL (≈ 70.1 µM)
Cc1nc(-c2nc(-c3ccccc3)c(-c3ccccc3)o2)c(-c2cccc(OCC(=O)O)c2)o1 [Compound 24]	0.02 (≈ 0.0442 µM)	–
COC(=O)COc1cccc(-c2oc(C)nc2-c2nc(-c3ccccc3)c(-c3ccccc3)o2)c1 [Compound 23, Methyl[3-[4-(4,5-diphenyl-2-oxazolyl)-2-methyl-5-oxazolyl]phenoxy]acetate]	0.13 (≈ 0.279 µM)	–
COC(=O)COc1cccc([C@@H]2OC=N[C@H]2c2nc(-c3ccccc3)c(-c3ccccc3)o2)c1 (relative stereo) [Compound 31, Methyl[3-[4-(4,5-diphenyl-2-oxazolyl)-4,5-dihydro-5-oxazolyl]phenoxy]acetate]	0.08 (≈ 0.176 µM)	–
COC(=O)COc1cccc(C(O)C(N)c2nc(-c3ccccc3)c(-c3ccccc3)o2)c1 (centres unmarked) [Compound 38, Methyl[3-[2-(4,5-diphenyl-2-oxazolyl)-2-amino-1-hydroxyethyl]phenoxy]acetate]	2.8 (≈ 6.3 µM)	–
O=C(O)COc1cccc(-c2[nH]ncc2-c2nc(-c3ccccc3)c(-c3ccccc3)o2)c1 [Compound 16, [3-[4-(4,5-Diphenyl-2-oxazolyl)-5-pyrazolyl]phenoxy]acetic acid]	0.08 (≈ 0.183 µM)	–
COC(=O)COc1cccc([C@@H]2OC(c3ccccc3)=N[C@H]2c2nc(-c3ccccc3)c(-c3ccccc3)o2)c1 (relative stereo) [Compound 40, Methyl[3-[4-(4,5-diphenyl-2-oxazolyl)-4,5-dihydro-2-phenyl-5-oxazolyl]phenoxy]acetate]	10 (≈ 18.8 µM)	–
Cn1ncc(-c2nc(-c3ccccc3)c(-c3ccccc3)o2)c1-c1cccc(OCC(=O)O)c1 [Compound 14]	0.5 (≈ 1.11 µM)	–
COC(=O)COc1cccc(-c2c(-c3nc(-c4ccccc4)c(-c4ccccc4)o3)cnn2C)c1 [Compound 13, Methyl[3-[4-(4,5-diphenyl-2-oxazolyl)-1-methyl-5-pyrazolyl]phenoxy]acetate]	0.75 (≈ 1.61 µM)	–
Cn1cc(-c2nc(-c3ccccc3)c(-c3ccccc3)o2)c(-c2cccc(OCC(=O)O)c2)n1 [Compound 12]	0.3 (≈ 0.664 µM)	–
COC(=O)COc1cccc([C@H]2OC(c3ccccc3)=N[C@H]2c2nc(-c3ccccc3)c(-c3ccccc3)o2)c1 (relative stereo) [Compound 42, Methyl[3-[4-(4,5-diphenyl-2-oxazolyl)-4,5-dihydro-2-phenyl-5-oxazolyl]phenoxy]acetate]	32 (≈ 60.3 µM)	inhibition at 32 µg/mL [1]: 15%
COC(=O)COc1cccc(-c2ccccc2-c2nc(-c3ccccc3)c(-c3ccccc3)o2)c1 [Compound 6, Methyl[2'-(4,5-diphenyl-2-oxazolyl)-[1,1'-biphenyl]-3-yloxy]acetate]	32 (≈ 69.3 µM)	inhibition at 32 µg/mL [1]: 34%
COC(=O)COc1cccc([C@H]2OC(C)=N[C@H]2c2nc(-c3ccccc3)c(-c3ccccc3)o2)c1 (relative stereo) [Compound 41, Methyl[3-[4-(4,5-diphenyl-2-oxazolyl)-4,5-dihydro-2-methyl-5-oxazolyl]phenoxy]acetate]	27 (≈ 57.6 µM)	–
O=C(O)COc1cccc(C2OC(=O)NC2c2nc(-c3ccccc3)c(-c3ccccc3)o2)c1 (centres unmarked) [Compound 44, [3-[4-(4,5-Diphenyl-2-oxazolyl)-2-oxo-5-oxazolidinyl]phenoxy]acetic acid]	–	IC50 (human PRP vs ADP) [1]: 1 µg/mL (≈ 2.19 µM)
O=C(O)CCCCCCCOc1nc(-c2ccccc2)c(-c2ccccc2)n1-c1ccccc1 [Octimibate]	–	inhibition of platelet aggregation, in words [2]: broad spectrum inhibitor of platelet aggregation; IC50 (human PRP vs ADP) ([2]; human PRP vs ADP): 1 µg/mL (≈ 2.2 µM)
COC(=O)COc1cccc(-c2nn(C)cc2-c2nc(-c3ccccc3)c(-c3ccccc3)o2)c1 [Compound 11, Methyl[3-[4-(4,5-diphenyl-2-oxazoly)-1-methyl-3-pyrazolyl]phenoxy]acetate]	1.12 (≈ 2.41 µM)	–
COC(=O)COc1cccc(C(O)C(NC=O)c2nc(-c3ccccc3)c(-c3ccccc3)o2)c1 (centres unmarked) [Compound 33, Methyl[3-[2-(4,5-diphenyl-2-oxazolyl)-2-(formylamino)-1-hydroxy-ethyl]phenoxy]acetate]	10 (≈ 21.2 µM)	–
COC(=O)COc1cccc(-c2ncoc2-c2nc(-c3ccccc3)c(-c3ccccc3)o2)c1 [Compound 4]	0.174 (≈ 0.385 µM)	–
COC(=O)COc1cccc(-c2[nH]ncc2-c2nc(-c3ccccc3)c(-c3ccccc3)o2)c1 [Compound 15, Methyl[3-[4-(4,5-diphenyl-2-oxazolyl)-5-pyrazolyl]phenoxy]acetate]	0.07 (≈ 0.155 µM)	–
O=C(O)COc1cccc(-c2oc(-c3ccccc3)nc2-c2nc(-c3ccccc3)c(-c3ccccc3)o2)c1 [Compound 26, [3-[4-(4,5-Diphenyl-2-oxazolyl)-2-phenyl-5-oxazolyl]phenoxy]acetic acid]	32 (≈ 62.2 µM)	–
O=C(O)COc1cccc(-c2ccccc2-c2nc(-c3ccccc3)c(-c3ccccc3)o2)c1 [Compound 7, [2'-(4,5-Diphenyl-2-oxazolyl)-[1,1'-biphenyl]-3-yloxy]acetic acid]	5 (≈ 11.2 µM)	–
COC(=O)COc1cccc(-c2oc(-c3ccccc3)nc2-c2nc(-c3ccccc3)c(-c3ccccc3)o2)c1 [Compound 25, Methyl[3-[4-(4,5-diphenyl-2-oxazolyl) -2-phenyl-5-oxazolyl]phenoxy]acetate]	32 (≈ 60.5 µM)	inhibition at 32 µg/mL [1]: 6%
